In patent US20100041760A1, “MONOARYL AMINOTETRALINES” (priority 2008, published 2010) one finds IC50 data, which are given here for 6 molecules.

The structures appear in SMILES notation.

The first assay addresses T1, human CRTH2 (Homo sapiens, UniProt Q9Y5Y4).
T1 sequence (Q9Y5Y4 1-395): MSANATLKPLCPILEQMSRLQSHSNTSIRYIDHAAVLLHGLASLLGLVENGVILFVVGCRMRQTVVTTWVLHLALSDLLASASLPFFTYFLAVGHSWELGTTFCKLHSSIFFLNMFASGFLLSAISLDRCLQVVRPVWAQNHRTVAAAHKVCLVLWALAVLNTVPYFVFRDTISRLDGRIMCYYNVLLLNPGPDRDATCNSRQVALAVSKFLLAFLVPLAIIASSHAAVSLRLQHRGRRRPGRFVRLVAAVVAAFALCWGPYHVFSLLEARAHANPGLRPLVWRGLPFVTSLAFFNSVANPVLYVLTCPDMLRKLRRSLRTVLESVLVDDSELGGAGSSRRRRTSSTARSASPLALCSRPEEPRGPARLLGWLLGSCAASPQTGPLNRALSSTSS
Kind of assay: Calcium Flux Assay Using Fluorometric Imaging Plate Reader (FLIPR). Further details: expressed in transfected cells; host or cells: CHO-K1 previously transfected with G-alpha 16. Particulars: CHO-K1 cells with G-alpha 16 and human CRTH2; inhibition of ligand (DK-PGD2) response; read-out: IC50 value in FLIPR calcium flux assay. The class given is cell-based. As for the experimental part:
CHO-K1 cells previously transfected with G-alpha 16 were subsequently transfected with the human CRTH2 receptor and the neomycin resistance gene. Following selection in 800 μg/mL G418 (geneticin), individual clones were assayed for their receptor expression based on staining with an anti human CRTH2 IgG, followed by assaying for their response to 13,14-dihydro-15-keto Prostaglandin D2 (DK-PDG2) (ligand) in the Ca^2+ Flux assay. Positive clones were then cloned by limiting dilution cloning. The transfected cells were cultured in Ham's F-12 medium supplemented with 10% fetal bovine serum, 2 mM glutamine, 100 U/mL penicillin/100 μg/mL streptomycin, 200 μg/mL hygromycin B, and 800 μg/mL G418 (geneticin). Cells were harvested with trypsin-EDTA (trypsin-ethylenediaminetetraacetic acid) and counted using ViaCount® reagent (from Guava Technologies, Inc. which contains two DNA-binding dyes that enable the reagent user to distinguish between viable and non-viable cells). The cell suspension volume was adjusted to 2.5×10^5 cells /mL with complete growth media. Aliquots of 50 μL were dispensed into BD Falcon™ 384 well black/clear microplates (from BD Biosciences, a division of Becton, Dickinson and Company) and the microplates were placed in a 37° C. CO2 incubator overnight. The following day, the microplates were used in the assay.
Loading Buffer containing dye (from the FLIPR® Calcium 3 Assay Kit from Molecular Devices, a division of MDS Analytical Technologies and MDS Inc.) was prepared by dissolving the contents of one bottle into 200 mL Hank's Balanced Salt Solution containing 20 mM HEPES (4-(2-hydroxyethyl)-1-piperazineethanesulfonic acid) and 2.5 mM probenecid. Growth media was removed from the cell plates and 25 μL of Hank's Balanced Salt Solution (HBSS) containing 20 mM HEPES, 0.05% BSA and 2.5 mM probenecid was added to each well followed by 25 μL of diluted dye using a Multidrop dispenser. The plates were then incubated for 1 hour at 37° C.
During the incubation, test compound plates were prepared by adding 90 μL of HBSS/20 mM HEPES/0.005% BSA buffer to the 2 μL of serial diluted compounds. To prepare serial diluted compounds, 20 mM stocks of compounds were dissolved in 100% DMSO. The compound dilution plate was set up as follows: well #1 received 5 μL of compound plus 10 μL of DMSO. Wells 2-10 received 10 μL of DMSO. 5 μL was mixed and transferred from well #1 into well #2. 1:3 serial dilutions were continued out 10 steps. 2 μL of diluted compound was transferred into duplicate wells of a 384 well “assay plate” and then 90 μL of buffer was added.
After incubation, both the cell and “assay plate” plates were brought to the fluorometric imaging plate reader (FLIPR®) and 20 μL of the diluted compounds were transferred to the cell plates by the FLIPR®. Plates were then incubated for 1 hour at room temperature. After the 1 hour incubation, plates were returned to the FLIPR® and 20 μL of 4.5× concentrated ligand was added to the cell plates. During the assay, fluorescence readings were taken simultaneously from all 384 wells of the cell plate every 1.5 seconds. Five readings were taken to establish a stable baseline, then 20 μL of sample was rapidly (30 μL/sec) and simultaneously added to each well of the cell plate. The fluorescence was continuously monitored before, during and after sample addition for a total elapsed time of 100 seconds. Responses (increase in peak fluorescence) in each well following agonist addition were determined. The initial fluorescence reading from each well, prior to ligand stimulation, was used as a zero baseline value for the data from that well. The responses were expressed as % inhibition of the buffer control. […]
On to `CN([C@@H]1CCCc2c(OCC(=O)O)cccc21)S(=O)(=O)c1cc(F)cc(C(F)(F)F)c1` [Example 1-1, {(R)-5-[(3-fluoro-5-trifluoromethyl-benzenesulfonyl)-methyl-amino]-5,6,7,8-tetrahydro-naphthalen-1-yloxy}-acetic acid], for which the 50% inhibitory concentration (IC50) worked out at 1.77 µM. With `CCN(CC)c1cc(C(F)(F)F)cc(S(=O)(=O)N(C)[C@@H]2CCCc3c(OCC(=O)O)cccc32)c1` [Example 4-2, {(R)-5-[(3-diethylamino-5-trifluoromethyl-benzenesulfonyl)-methyl-amino]-5,6,7,8-tetrahydro-naphthalen-1-yloxy}-acetic acid], the 50% inhibitory concentration (IC50) came out at 2.01 µM. Turning to `CN([C@@H]1CCCc2c(OCC(=O)O)cccc21)S(=O)(=O)c1cc(OC2CCCC2)cc(C(F)(F)F)c1` [Example 9-3, {(R)-5-[(3-cyclopentyloxy-5-trifluoromethyl-benzenesulfonyl)-methyl-amino]-5,6,7,8-tetrahydro-naphthalen-1-yloxy}-acetic acid], the 50% inhibitory concentration (IC50) stood at 0.462 µM. Still for that read-out and setting: for `O=C(O)COc1cccc2c1CCC[C@H]2NS(=O)(=O)c1cc(F)cc(F)c1` [Example 10-5, [(R)-5-(3,5-difluoro-benzenesulfonylamino)-5,6,7,8-tetrahydro-naphthalen-1-yloxy]-acetic acid] the value was 0.094 µM; for `O=C(O)COc1cccc2c1CCC[C@H]2NS(=O)(=O)c1cc(F)cc(C(F)(F)F)c1` [Example 10-12, [(R)-5-(3-fluoro-5-trifluoromethyl-benzenesulfonylamino)-5,6,7,8-tetrahydro-naphthalen-1-yloxy]-acetic acid], 0.313 µM.

Still in this assay, the particulars now being: CHO-K1 cells with G-alpha 16 and human CRTH2; unit inferred; read-out: IC50 value in FLIPR calcium flux assay (unit inferred).
Take `O=C(O)COc1cccc2c1CCC[C@H]2NS(=O)(=O)c1cc(Cl)cc(Cl)c1` [Example 10-1, [(R)-5-(3,5-dichloro-benzenesulfonylamino)-5,6,7,8-tetrahydro-naphthalen-1-yloxy]-acetic acid]: the IC50 was about 3 µM.

The IC50 is the concentration that gives 50% inhibition.
